Measurements published in US12129241B1, “9-(2-hydroxypyridin-3-yl)-10-(2-hydroxyethyl)-3,3,6,6-tetramethyl-3,4,6,7,9,10-hexahydroacridine1,8(2H,5H)-dione as an antimicrobial compound” (KING FAISAL UNIVERSITY, priority 2023, dated 2024).

Key:
Experiment in all cases: Antimicrobial screening by agar dilution
Format in all cases: cell-based
Settings in all cases: after 10, 20, 40 and 60 minutes at all dilutions 1:100, 1:200, 1:400, 1:800
Pseudomonas aeruginosa = system: Pseudomonas aeruginosa
Experimental: (§1) The antibacterial properties of the synthesized compound 9-(2-hydroxypyridin-3-yl)-10-(2-hydroxyethyl)-3,3,6,6-tetramethyl-3,4,6,7,9,10-hexahydroacridine1,8(2H,5H)-dione were studied by the method of agar dilution. Test solutions of each compound was prepared in concentration of 1% using dimethylformamide as a solvent then they are diluted in physiological solution to obtain the final experimental dilutions 1:100, 1:200, 1:400, 1:800. The effect of these substances are compared with furacillin in a controllable study. The testing microbes used were gram positive bacteria Staphylococcus aureus, gram negative bacteria Pseudomonas aeruginosa and Escherichia coli and Candida albicans fungus. The experiments used for this survey were meat-pentonlu agar (EPA) for cultivation of bacteria and Saburo environment for the fungus. Each experiment used 1 mL of test solution on each plate […]. Two drops of emulsified with microbes feel were added. All experimental samples were taken from the agar after 10, 20, 40, 60 minutes in the environment on the basis of Patrk planted. The bacteria were cultivated at a temperature of 37° C. for 1 day and the mushroom was kept in a thermostat for […] at a temperature of 28° C. Then results were checked.

Escherichia coli = system: Escherichia coli
Experimental: as §1

Staphylococcus aureus = system: Staphylococcus aureus
Experimental: as §1

Candida albicans = system: Candida albicans
Experimental: as §1

Measured: inhibition activity

CC1(C)CC(=O)C2=C(C1)N(CCO)C1=C(C(=O)CC(C)(C)C1)C2c1cccnc1O [9-(2-hydroxypyridin-3-yl)-10-(2-hydroxyethyl)-3,3,6,6-tetramethyl-3,4,6,7,9,10-hexahydroacridine1,8(2H,5H)-dione]
highest inhibition activity: all assays above
